Among the data in PubChem BioAssay AID489006 (Sanford-Burnham Center for Chemical Genomics, 2010) are IC50 values, retold here.

Each structure is given as a SMILES string. The source made the active and inactive calls. The rule behind the calls is not given here.

The test concerns Jurkat NF-kB reporter, luminescence. Briefly: Jurkat NF-kB signaling inhibitors – cell-based, luminescence, selectivity assay for B-cell receptor NF-kB inhibitor project, dose response (AID 489006).
Regarding `O=C(CCCN1C(=O)/C(=C/c2ccccc2Cl)SC1=S)NNC(=O)c1ccncc1`, the IC50 (commonly the concentration that inhibits the measured activity by half) is 7.79 µM.

As for `Cc1nn(C(C)(C)C)c(OC(=O)c2ccc(Br)o2)c1Sc1ccccc1`, the IC50 is > 80 µM (inactive).

As to `Cc1cc(NC(=O)CCCN2C(=O)/C(=C/c3ccccc3Cl)SC2=S)no1`, the IC50 is 20.4 µM (inactive).

`COC(=O)C(C)Oc1cc(C)cc2oc(=O)c3c(c12)CCC3` (stereo unspecified): the IC50 is 49.9 µM (inactive).

In the case of `O=C(Nc1nc(-c2ccccc2)cs1)c1ccccc1NS(=O)(=O)c1ccc(F)cc1`, the IC50 is 19 µM.

As to `COc1cc(-c2nc3n(n2)C(c2ccc(F)cc2)C2=C(CCCC2=O)N3)cc(OC)c1OC` (stereo unspecified), the IC50 was > 80 µM (inactive).

On to `O=C(CCCN1C(=O)/C(=C/c2ccccc2Cl)SC1=S)Nc1ccccn1`, for which the IC50 is 9.52 µM.

With `COc1cc(-c2[nH]nc3c2C(c2ccco2)C(C#N)=C(N)O3)cc(OC)c1OC` (stereo unspecified), the IC50 was 61 µM (inactive).

For `Cc1cc(C)c2nc(NC(=O)C3CSC4(C)CCC(=O)N34)sc2c1` (stereo unspecified), the IC50 is 76.5 µM (inactive).

Regarding `OCCN1CCN(C(=S)c2ccc(-c3ccccc3)cc2)CC1`, the IC50 was 7.07 µM.

Turning to `O=C(CCl)N(c1ccc(Cl)cc1)c1c[nH]c2ccccc12`, the IC50 is 0.85 µM.

For the compound `COc1ccc(C=C(C(C)=O)C(C)=O)cc1OC`, the concentration for half-maximal inhibition (IC50) is 6.23 µM.

With `CC(=O)Nc1ccc(Nc2nc(-c3sc(NC(C)=O)nc3C)cs2)cc1`, the IC50 was 8.63 µM.

Consider `N=c1ccn2c(n1)O[C@H]1[C@H](O)[C@@H](CO)O[C@H]12`, for which the IC50 is 0.64 µM.

On to `CC1=CC(C)(C)Nc2ccc(OC(=O)C(Cc3ccccc3)N3C(=O)c4ccccc4C3=O)cc21` (stereo unspecified), for which the IC50 was 7.32 µM.

Take `COc1ccc(-n2nnnc2S(=O)(=O)CC(=O)N2CCCCC2)cc1`: the half-maximal inhibitory concentration (IC50) was 2.25 µM.

Consider `CCc1ccc(/C=C2\SC(=S)N(CCCC(=O)Nc3ccccn3)C2=O)cc1`, for which the IC50 was 1.58 µM.

For the compound `Oc1cc(O)cc(-c2cc3ccc(O)cc3o2)c1`, the IC50 was > 80 µM (inactive).

As to `Cc1cc(C)cc(NC(=O)c2nnn(Cc3cc(C)ccc3C)c2N)c1`, the IC50 was > 80 µM (inactive).

`O=S(=O)(NCc1ccncc1)c1ccc(Br)s1`: the IC50 was > 80 µM (inactive).

In the case of `Cc1ccc(-c2nc(C(=O)NCC3CCCO3)cc3c2[nH]c2ccccc23)cc1` (stereo unspecified), the IC50 was 23.4 µM (inactive).

With `COc1ccc(C(=O)Nc2ccc(OC)c([N+](=O)[O-])c2)cc1Br`, the IC50 is > 80 µM (inactive).

For `CCN(CC)c1ccc(/C=C2/C(=O)ON=C2C)cc1`, the IC50 was 19.3 µM.

On to `O=C(Cc1cccc2ccccc12)Nc1ccc(-c2cc3ccccc3oc2=O)cc1`, for which the concentration for half-maximal inhibition (IC50) is 14.8 µM.

For the compound `COc1ccc(OC)c(C2CC(=O)Nc3cc(OC)c(OC)c(OC)c32)c1` (stereo unspecified), the IC50 was > 80 µM (inactive).

For the compound `COc1ccc(-c2nc(CSCC(=O)NCc3ccco3)c(C)o2)cc1`, the IC50 is 66.8 µM (inactive).

As to `C/C(=N\Nc1nc(Nc2ccccc2)nc(N2CCOCC2)n1)c1cccs1`, the IC50 was > 80 µM (inactive).

As for `CCCCCCn1c(-c2ccco2)nc2oc3cc(OC)ccc3c(=O)c2c1=O`, the IC50 is > 80 µM (inactive).

Turning to `O=c1cccc2c1c1cc[nH]c3ccc(=O)n2c31`, the IC50 is 2.3 µM.

Regarding `COc1ccccc1/C=C1\SC(=S)N(CCC(=O)NC2=NCCS2)C1=O`, the IC50 is 28.3 µM (inactive).

In the case of `Cc1ccc(C(=O)CSc2nnc(COc3cccc(C)c3)o2)cc1`, the IC50 is > 80 µM (inactive).

Consider `CN(C)C(=O)CCc1nc(-c2ccc(C(C)(C)C)cc2)no1`, for which the IC50 is > 80 µM (inactive).

As to `COc1cc2c3c(c1)c(N=NC(N)=S)c(O)n3C(C)(C)C=C2C`, the IC50 is > 80 µM (inactive).

In the case of `COCCCn1c(=O)/c(=C\c2cccc(OC)c2OC)s/c1=C(/C#N)C(=O)Nc1ccc(C(=O)O)cc1`, the IC50 is > 80 µM (inactive).

As for `Cc1nc(Nc2c(Cl)cccc2Cl)sc1C(=O)Nc1ccccc1`, the IC50 was > 80 µM (inactive).

Take `COc1ccc2nc(Sc3c([N+](=O)[O-])nc(C)n3Cc3ccccc3)[nH]c2c1`: the IC50 is 12.2 µM.
